Like-named read-outs stand apart in the source and are kept apart here.
Experiments:
[1] = Pharmacokinetic experiment in mice (single dose iv and intragastric); assay type: in vivo; conditions: mouse, plasma, male C57 mice; for bioavailability: po 10 mg/kg vs iv 2.5 mg/kg, read-out: F (bioavailability)
Procedure: Experimental objective: In this experiment, a single dose of each test compound was administered to C57 mice intravenously and intragastrically, the concentrations of the compounds 35, 37 and 38 in plasma of the mice were measured, and the pharmacokinetic characteristics and bioavailability of each test compound in mice were evaluated.
Experimental animals: Male C57 mice, 20-25 g, 6-8 weeks old, 18 mice/compound. The experimental animals were purchased from CHENGDU DOSSY EXPERIMENTAL ANIMALS CO., LTD.
Experimental method: On the day of the experiment, 18 C57 mice were randomly grouped according to their body weight. The animals were fasted with water available for 12 to 14 hours one day before the administration of a test compound, and were fed 4 hours after the administration.
Before and after the administration, 0.08 ml of blood was taken from the orbit of the […] under isoflurane anesthesia, and placed in an EDTAK2 centrifuge tube. Centrifugation was carried out at 5000 rpm at 4° C. for 10 min and the plasma was collected.
Time points for plasma collection in G1 group: 0, 5, 15, 30 min, 1, 2, 4, 6, 8, and 24 h.
Time points for plasma collection in G2 group: 0, 15, 30 min, 1, 2, 4, 6, 8, and 24 h.
Before analysis and detection, all samples were stored at −80° C.
30 μL of each of plasma sample, standard curve and quality control sample was taken, and 200 μL of acetonitrile solution containing internal standard was added, and the mixture was homogeneously mixed by vortex, and then centrifuged at 12000 rpm for 10 min at 4° C. The supernatant was taken and added into a 96-well plate and analyzed by LC-MS/MS.
The main pharmacokinetic parameters were analyzed by non-compartmental model using WinNonlin 8.0 software.

ATX = biological target: T1, ATX (Homo sapiens, UniProt Q13822); assay: ATX inhibitory activity: LPA production in pooled human plasma, LC-MS-MS; assay type: biochemical; conditions: 37° C. 2 h
T1 construct: ATX activity was detected by detecting LPA production in pooled human plasma; from tissue; host or cells: pooled human plasma (heparin-anticoagulated whole blood, centrifuged)
Procedure: Experimental subject: compounds to be tested.
ATX activity was detected by detecting LPA production in pooled human plasma. Whole blood anticoagulated with heparin was collected and centrifuged, and then plasma was collected. 5-μL gradient dilution of the compound to be tested or DMSO was added to 95-μL plasma, incubated at 37° C. for 2 h, then a stop solution (40 mM disodium hydrogen phosphate buffer, containing a buffer solution (containing 30 mM citric acid, pH=4)) was added. LPA in plasma was detected by LC-MS-MS before and after incubation.
LPA (18:2) and (20:4) LC-MS-MS analytical method
Using a 1.5 mL EP tube, 3.0 μL of each of the working solutions for standard curve and quality control was taken and added to 27.0 μL of water. After homogeneously mixing by vortex, 400 μL of internal standard solution was added. After homogeneously mixing by vortex, the mixture was centrifuged at 4° C. for 10 min. 180 μL of supernatant was taken and added into a 96-well plate, waiting for sample injection.
10 μL of the compound to be tested (10 mg/ml) was precisely pipetted into an EP tube, 990 μL of DMSO solution was added, and the mixture was vortexed to completely dissolve to obtain a solution (100 μg/mL).
Inhibition rate of ATX receptor activity was calculated in the following way: inhibition rate %=((LPAc−LPA0)−(LPAi−LPA0))/(LPAc−LPA0)*100%, wherein LPAc was the LPA content in plasma after DMSO was added and incubated for 2 h, LPA0 was the LPA content in plasma before DMSO was added for incubation, and LPAi was the LPA content in plasma after test compound was added and incubated for 2 h.

[2] = LPA 18:2 readout, read-out: Inhibitory activity against ATX receptor, LPA 18:2 IC50
[3] = LPA 20:4 readout, read-out: Inhibitory activity against ATX receptor, LPA 20:4 IC50

SMILES	bioavailability [1]	AUC ([1]; iv 2.5 mg/kg)	C0 ([1]; iv 2.5 mg/kg)	half-life ([1]; iv 2.5 mg/kg)	AUC ([1]; po 10 mg/kg)	Cmax ([1]; po 10 mg/kg)	Tmax ([1]; po 10 mg/kg)	half-life ([1]; po 10 mg/kg)	IC50 (ATX; [2])	IC50 (ATX; [3])
O=C(Cc1nnc(-c2cnc(N[C@@H]3Cc4ccc(C(F)(F)F)cc4C3)nc2)o1)N1CCc2[nH]nnc2C1 [Compound 35, (R)-1-(1,4,6,7-tetrahydro-5H-[1,2,3]triazolo[4,5-c]pyridin-5-yl)-2-(5-(2-((5-(trifluoromethyl)-2,3-dihydro-1H-inden-2-yl)amino)pyrimidin-5-yl)-1,3,4-oxadiazol-2-yl)ethan-1-one]	35.6%	6780 ng·h/mL	6850 ng/mL	61.2 min	9650 ng·h/mL	3370 ng/mL	30 min	56.8 min	2.17 nM	2.25 nM
O=C(Cc1nnc(-c2cnc(N[C@@H]3Cc4ccc(C(F)F)cc4C3)nc2)o1)N1CCc2[nH]nnc2C1 [Compound 37, (R)-2-(5-(2-((5-(difluoromethyl)-2,3-dihydro-1H-inden-2-yl)amino)pyrimidin-5-yl)-1,3,4-oxadiazol-2-yl)-1-(1,4,6,7-tetrahydro-5H-[1,2,3]triazolo[4,5-c]pyridin-5-yl)ethan-1-one]	17.8%	3790 ng·h/mL	6640 ng/mL	53.3 min	2700 ng·h/mL	1600 ng/mL	15 min	78.6 min	4.84 nM	4.78 nM
